Activity calls are given as the source filed them. The rule behind the calls is not given here.
Columns and labels:
Type in all cases: functional
[1] = tested on: Streptococcus; assay: Antimicrobial activity against beta-hemolytic Streptococcus at 500 ppm after 24 hr by disk diffusion method; conditions: read-out: IZ
[2] = tested on: Nannizzia gypsea; assay: Antimicrobial activity against Microsporum gypseum at 200 ppm after 72 to 96 hr by disk diffusion method; conditions: for zone of inhibition at 200 ppm: read-out: IZ
[3] = tested on: Pseudomonas; assay: Antimicrobial activity against Pseudomonas at 100 ppm after 24 hr by disk diffusion method; conditions: for zone of inhibition at 100 ppm: read-out: IZ
[4] = tested on: Nannizzia gypsea; assay: Antimicrobial activity against Microsporum gypseum at 100 ppm after 72 to 96 hr by disk diffusion method; conditions: for zone of inhibition at 100 ppm: read-out: IZ
[5] = tested on: Shigella flexneri; assay: Antimicrobial activity against Shigella flexneri at 200 ppm after 24 hr by disk diffusion method; conditions: read-out: IZ
[6] = tested on: Staphylococcus aureus; assay: Antimicrobial activity against Staphylococcus aureus at 200 ppm after 24 hr by disk diffusion method; conditions: read-out: IZ
[7] = tested on: Salmonella typhi; assay: Antimicrobial activity against Salmonella enterica subsp. enterica serovar Typhi at 200 ppm after 24 hr by disk diffusion method; conditions: read-out: IZ
[8] = tested on: Nannizzia gypsea; assay: Antimicrobial activity against Microsporum gypseum at 500 ppm after 72 to 96 hr by disk diffusion method; conditions: read-out: IZ
[9] = tested on: Vibrio cholerae; assay: Antimicrobial activity against Vibrio cholerae at 100 ppm after 24 hr by disk diffusion method; conditions: for zone of inhibition at 100 ppm: read-out: IZ
[10] = tested on: Mucor; assay: Antimicrobial activity against Mucor at 200 ppm after 72 to 96 hr by disk diffusion method; conditions: read-out: IZ
[11] = tested on: Aspergillus flavus; assay: Antimicrobial activity against Aspergillus flavus at 200 ppm after 72 to 96 hr by disk diffusion method; conditions: read-out: IZ
[12] = tested on: Shigella flexneri; assay: Antimicrobial activity against Shigella flexneri at 100 ppm after 24 hr by disk diffusion method; conditions: for zone of inhibition at 100 ppm: read-out: IZ
[13] = tested on: Pseudomonas; assay: Antimicrobial activity against Pseudomonas at 200 ppm after 24 hr by disk diffusion method; conditions: read-out: IZ
[14] = tested on: Escherichia coli; assay: Antimicrobial activity against Escherichia coli at 200 ppm after 24 hr by disk diffusion method; conditions: read-out: IZ
[15] = tested on: Rhizopus; assay: Antimicrobial activity against Rhizopus at 500 ppm after 72 to 96 hr by disk diffusion method; conditions: read-out: IZ
[16] = tested on: Klebsiella pneumoniae; assay: Antimicrobial activity against Klebsiella pneumoniae at 100 ppm after 24 hr by disk diffusion method; conditions: for zone of inhibition at 100 ppm: read-out: IZ
[17] = tested on: Escherichia coli; assay: Antimicrobial activity against Escherichia coli at 100 ppm after 24 hr by disk diffusion method
[18] = tested on: Vibrio cholerae; assay: Antimicrobial activity against Vibrio cholerae at 200 ppm after 24 hr by disk diffusion method; conditions: read-out: IZ
[19] = tested on: Mucor; assay: Antimicrobial activity against Mucor at 100 ppm after 72 to 96 hr by disk diffusion method; conditions: for zone of inhibition at 100 ppm: read-out: IZ
[20] = tested on: Rhizopus; assay: Antimicrobial activity against Rhizopus at 200 ppm after 72 to 96 hr by disk diffusion method; conditions: for zone of inhibition at 200 ppm: read-out: IZ
[21] = tested on: Streptococcus; assay: Antimicrobial activity against beta-hemolytic Streptococcus at 200 ppm after 24 hr by disk diffusion method; conditions: read-out: IZ
[22] = tested on: Shigella flexneri; assay: Antimicrobial activity against Shigella flexneri at 500 ppm after 24 hr by disk diffusion method; conditions: read-out: IZ
[23] = tested on: Vibrio cholerae; assay: Antimicrobial activity against Vibrio cholerae at 500 ppm after 24 hr by disk diffusion method; conditions: read-out: IZ
[24] = tested on: Mucor; assay: Antimicrobial activity against Mucor at 500 ppm after 72 to 96 hr by disk diffusion method; conditions: read-out: IZ
[25] = tested on: Klebsiella pneumoniae; assay: Antimicrobial activity against Klebsiella pneumoniae at 200 ppm after 24 hr by disk diffusion method; conditions: read-out: IZ
[26] = tested on: Rhizopus; assay: Antimicrobial activity against Rhizopus at 100 ppm after 72 to 96 hr by disk diffusion method
[27] = tested on: Streptococcus; assay: Antimicrobial activity against beta-hemolytic Streptococcus at 100 ppm after 24 hr by disk diffusion method; conditions: for zone of inhibition at 100 ppm: read-out: IZ
[28] = tested on: Staphylococcus aureus; assay: Antimicrobial activity against Staphylococcus aureus at 500 ppm after 24 hr by disk diffusion method; conditions: read-out: IZ
[29] = tested on: Escherichia coli; assay: Antimicrobial activity against Escherichia coli at 500 ppm after 24 hr by disk diffusion method; conditions: read-out: IZ
[30] = tested on: Klebsiella pneumoniae; assay: Antimicrobial activity against Klebsiella pneumoniae at 500 ppm after 24 hr by disk diffusion method; conditions: read-out: IZ
[31] = tested on: Salmonella typhi; assay: Antimicrobial activity against Salmonella enterica subsp. enterica serovar Typhi at 100 ppm after 24 hr by disk diffusion method; conditions: for zone of inhibition at 100 ppm: read-out: IZ
[32] = tested on: Staphylococcus aureus; assay: Antimicrobial activity against Staphylococcus aureus at 100 ppm after 24 hr by disk diffusion method; conditions: for zone of inhibition at 100 ppm: read-out: IZ
[33] = tested on: Pseudomonas; assay: Antimicrobial activity against Pseudomonas at 500 ppm after 24 hr by disk diffusion method; conditions: read-out: IZ
[34] = tested on: Salmonella typhi; assay: Antimicrobial activity against Salmonella enterica subsp. enterica serovar Typhi at 500 ppm after 24 hr by disk diffusion method; conditions: read-out: IZ
[35] = tested on: Aspergillus flavus; assay: Antimicrobial activity against Aspergillus flavus at 100 ppm after 72 to 96 hr by disk diffusion method; conditions: for zone of inhibition at 100 ppm: read-out: IZ
[36] = tested on: Aspergillus flavus; assay: Antimicrobial activity against Aspergillus flavus at 500 ppm after 72 to 96 hr by disk diffusion method; conditions: read-out: IZ

## COc1ccc(/C=C/C(=O)c2ccc(N3CCOCC3)cc2)cc1
[1]
  zone of inhibition at 500 ppm: 30 mm
[2]
  zone of inhibition at 200 ppm: 12 mm
[3]
  zone of inhibition at 100 ppm: 12 mm
[4]
  zone of inhibition at 100 ppm: 12 mm
[5]
  zone of inhibition at 200 ppm: 17 mm
[6]
  zone of inhibition at 200 ppm: 22 mm
[7]
  zone of inhibition at 200 ppm: 12 mm
[8]
  zone of inhibition at 500 ppm: 17 mm
[9]
  inhibition zone (IZ): inactive
[10]
  zone of inhibition at 200 ppm: 12 mm
[11]
  zone of inhibition at 200 ppm: 12 mm
[12]
  inhibition zone (IZ): inactive
[13]
  zone of inhibition at 200 ppm: 22 mm
[14]
  zone of inhibition at 200 ppm: 12 mm
[15]
  zone of inhibition at 500 ppm: 17 mm
[16]
  inhibition zone (IZ): inactive
[17]
  inhibition zone (IZ): inactive
[18]
  zone of inhibition at 200 ppm: 12 mm
[19]
  inhibition zone (IZ): inactive
[20]
  zone of inhibition at 200 ppm: 12 mm
[21]
  zone of inhibition at 200 ppm: 22 mm
[22]
  zone of inhibition at 500 ppm: 22 mm
[23]
  zone of inhibition at 500 ppm: 17 mm
[24]
  zone of inhibition at 500 ppm: 17 mm
[25]
  zone of inhibition at 200 ppm: 17 mm
[26]
  inhibition zone (IZ): inactive
[27]
  zone of inhibition at 100 ppm: 12 mm
[28]
  zone of inhibition at 500 ppm: 30 mm
[29]
  zone of inhibition at 500 ppm: 17 mm
[30]
  zone of inhibition at 500 ppm: 30 mm
[31]
  inhibition zone (IZ): inactive
[32]
  zone of inhibition at 100 ppm: 12 mm
[33]
  zone of inhibition at 500 ppm: 30 mm
[34]
  zone of inhibition at 500 ppm: 17 mm
[35]
  zone of inhibition at 100 ppm: 12 mm
[36]
  zone of inhibition at 500 ppm: 17 mm

## O=C(/C=C/c1ccc(F)cc1)c1ccc(N2CCOCC2)cc1
[1]
  zone of inhibition at 500 ppm: 22 mm
[2]
  zone of inhibition at 200 ppm: 17 mm
[3]
  inhibition zone (IZ): inactive
[4]
  inhibition zone (IZ): inactive
[5]
  zone of inhibition at 200 ppm: 17 mm
[6]
  zone of inhibition at 200 ppm: 17 mm
[7]
  zone of inhibition at 200 ppm: 17 mm
[8]
  zone of inhibition at 500 ppm: 30 mm
[9]
  zone of inhibition at 100 ppm: 12 mm
[10]
  zone of inhibition at 200 ppm: 17 mm
[11]
  zone of inhibition at 200 ppm: 17 mm
[12]
  inhibition zone (IZ): inactive
[13]
  zone of inhibition at 200 ppm: 22 mm
[14]
  zone of inhibition at 200 ppm: 17 mm
[15]
  zone of inhibition at 500 ppm: 22 mm
[16]
  inhibition zone (IZ): inactive
[17]
  inhibition zone (IZ): inactive
[18]
  zone of inhibition at 200 ppm: 17 mm
[19]
  inhibition zone (IZ): inactive
[20]
  zone of inhibition at 200 ppm: 17 mm
[21]
  zone of inhibition at 200 ppm: 17 mm
[22]
  zone of inhibition at 500 ppm: 22 mm
[23]
  zone of inhibition at 500 ppm: 17 mm
[24]
  zone of inhibition at 500 ppm: 22 mm
[25]
  zone of inhibition at 200 ppm: 12 mm
[26]
  inhibition zone (IZ): inactive
[27]
  inhibition zone (IZ): inactive
[28]
  zone of inhibition at 500 ppm: 22 mm
[29]
  zone of inhibition at 500 ppm: 17 mm
[30]
  zone of inhibition at 500 ppm: 22 mm
[31]
  zone of inhibition at 100 ppm: 12 mm
[32]
  inhibition zone (IZ): inactive
[33]
  zone of inhibition at 500 ppm: 30 mm
[34]
  zone of inhibition at 500 ppm: 17 mm
[35]
  zone of inhibition at 100 ppm: 12 mm
[36]
  zone of inhibition at 500 ppm: 30 mm

## Cc1ccc(/C=C/C(=O)c2ccc(N3CCOCC3)cc2)cc1
[1]
  zone of inhibition at 500 ppm: 30 mm
[2]
  inhibition zone (IZ): inactive
[3]
  zone of inhibition at 100 ppm: 17 mm
[4]
  zone of inhibition at 100 ppm: 12 mm
[5]
  zone of inhibition at 200 ppm: 17 mm
[6]
  zone of inhibition at 200 ppm: 17 mm
[7]
  zone of inhibition at 200 ppm: 17 mm
[8]
  zone of inhibition at 500 ppm: 17 mm
[9]
  zone of inhibition at 100 ppm: 12 mm
[10]
  zone of inhibition at 200 ppm: 12 mm
[11]
  zone of inhibition at 200 ppm: 12 mm
[12]
  zone of inhibition at 100 ppm: 12 mm
[13]
  zone of inhibition at 200 ppm: 22 mm
[14]
  zone of inhibition at 200 ppm: 12 mm
[15]
  zone of inhibition at 500 ppm: 17 mm
[16]
  zone of inhibition at 100 ppm: 12 mm
[17]
  inhibition zone (IZ): inactive
[18]
  zone of inhibition at 200 ppm: 12 mm
[19]
  zone of inhibition at 100 ppm: 12 mm
[20]
  inhibition zone (IZ): inactive
[21]
  zone of inhibition at 200 ppm: 17 mm
[22]
  zone of inhibition at 500 ppm: 30 mm
[23]
  zone of inhibition at 500 ppm: 17 mm
[24]
  zone of inhibition at 500 ppm: 17 mm
[25]
  zone of inhibition at 200 ppm: 17 mm
[26]; read-out: IZ
  zone of inhibition at 100 ppm: 12 mm
[27]
  zone of inhibition at 100 ppm: 12 mm
[28]
  zone of inhibition at 500 ppm: 30 mm
[29]
  zone of inhibition at 500 ppm: 17 mm
[30]
  zone of inhibition at 500 ppm: 30 mm
[31]
  zone of inhibition at 100 ppm: 12 mm
[32]
  inhibition zone (IZ): inactive
[33]
  zone of inhibition at 500 ppm: 30 mm
[34]
  zone of inhibition at 500 ppm: 17 mm
[35]
  zone of inhibition at 100 ppm: 12 mm
[36]
  zone of inhibition at 500 ppm: 17 mm

## O=C(/C=C/c1ccc(Cl)cc1)c1ccc(N2CCOCC2)cc1
[1]
  zone of inhibition at 500 ppm: 22 mm
[2]
  zone of inhibition at 200 ppm: 17 mm
[3]
  zone of inhibition at 100 ppm: 17 mm
[4]
  zone of inhibition at 100 ppm: 12 mm
[5]
  zone of inhibition at 200 ppm: 17 mm
[6]
  zone of inhibition at 200 ppm: 17 mm
[7]
  zone of inhibition at 200 ppm: 17 mm
[8]
  zone of inhibition at 500 ppm: 22 mm
[9]
  zone of inhibition at 100 ppm: 12 mm
[10]
  zone of inhibition at 200 ppm: 17 mm
[11]
  zone of inhibition at 200 ppm: 22 mm
[12]
  zone of inhibition at 100 ppm: 17 mm
[13]
  zone of inhibition at 200 ppm: 22 mm
[14]
  zone of inhibition at 200 ppm: 17 mm
[15]
  zone of inhibition at 500 ppm: 30 mm
[16]
  zone of inhibition at 100 ppm: 12 mm
[17]; read-out: IZ
  zone of inhibition at 100 ppm: 12 mm
[18]
  zone of inhibition at 200 ppm: 17 mm
[19]
  zone of inhibition at 100 ppm: 12 mm
[20]
  zone of inhibition at 200 ppm: 17 mm
[21]
  zone of inhibition at 200 ppm: 17 mm
[22]
  zone of inhibition at 500 ppm: 22 mm
[23]
  zone of inhibition at 500 ppm: 17 mm
[24]
  zone of inhibition at 500 ppm: 22 mm
[25]
  zone of inhibition at 200 ppm: 22 mm
[26]
  inhibition zone (IZ): inactive
[27]
  zone of inhibition at 100 ppm: 12 mm
[28]
  zone of inhibition at 500 ppm: 22 mm
[29]
  zone of inhibition at 500 ppm: 17 mm
[30]
  zone of inhibition at 500 ppm: 30 mm
[31]
  inhibition zone (IZ): inactive
[32]
  zone of inhibition at 100 ppm: 12 mm
[33]
  zone of inhibition at 500 ppm: 30 mm
[34]
  zone of inhibition at 500 ppm: 22 mm
[35]
  inhibition zone (IZ): inactive
[36]
  zone of inhibition at 500 ppm: 30 mm

From ChEMBL document CHEMBL3045021, “Synthesis, antibacterial, and antifungal activities of biolabile (E)-1-(4-morpholinophenyl)-3-aryl-prop-2-en-1-ones” (2009)
